Test systems include U251 CNS; NCI/ADR-RES ovarian; SK-OV-3 ovarian; OVCAR-5 ovarian; M14 melanoma; HOP-92 NSCLC; HOP-62 NSCLC; COLO 205 colon.
Test in all cases: DTP human tumour cell line panel, 48 h

The structures appear in SMILES notation. Values joined by “and” are separate entries in the source; they are usually repeats but may differ in a detail not shown here. Equal entries are not always repeated.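 Growth conditions: 96-well plates. Treatment: test compound, 48 hours, 5 concentrations. Analysis: linear interpolation between bracketing concentrations; unreached endpoints set to highest concentration. Abbreviation: GI50, concentration required for 50% inhibition of growth. Definition used: TGI = concentration required for complete inhibition of growth.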

Usually GI50 stands for the concentration giving 50% growth inhibition. For orientation: TGI means the concentration at which net growth stops. Lower therefore signals greater sensitivity of the cells. Take `NC(CSC(c1ccccc1)(c1ccccc1)c1ccc(Cl)cc1)C(=O)O` (stereo unspecified): the concentration for 50% growth inhibition (GI50) is 0.0978 µM with U251 CNS; 0.712 µM in the assay on NCI/ADR-RES ovarian; 0.158 µM with SK-OV-3 ovarian; 0.774 µM in the assay on OVCAR-5 ovarian; 0.0322 µM in the assay on M14 melanoma; 1.4 µM in the assay with HOP-92 NSCLC. Also, the values for the GI50 in the assay with HOP-62 NSCLC and with COLO 205 colon were 0.714 µM and 0.256 µM, respectively. For the same compound, the concentration for total growth inhibition (TGI) in the assay with U251 CNS was 18.1 µM; in the assay on NCI/ADR-RES ovarian, 7.3 µM; in the assay with SK-OV-3 ovarian, 21.7 µM; in the assay on OVCAR-5 ovarian, greater than 63.9 µM; in the assay on M14 melanoma it was 0.132 µM; in the assay with HOP-92 NSCLC it was 39.3 µM. Further, the total growth inhibition concentration (TGI) is 20.5 µM with HOP-62 NSCLC and 0.768 µM with COLO 205 colon.

Turning to `ClC1=C(Cl)C(Cl)=C(Cl)C1=C/C=C/c1ccccc1`, the 50% growth inhibitory concentration (GI50) in the assay on U251 CNS was 0.346 µM; in the assay on NCI/ADR-RES ovarian it was 0.393 µM; in the assay on SK-OV-3 ovarian, 2.44 µM; in the assay on OVCAR-5 ovarian it was 0.338 µM; with M14 melanoma, 0.279 µM; in the assay with HOP-92 NSCLC it was 0.165 µM. The results for the GI50 with HOP-62 NSCLC and in the assay with COLO 205 colon were 1.2 µM and 0.226 µM, respectively. For the same compound, the concentration for total growth inhibition (TGI) is 1.37 µM in the assay with U251 CNS; greater than 27.5 µM in the assay on SK-OV-3 ovarian; 0.968 µM in the assay with OVCAR-5 ovarian; 0.882 µM with M14 melanoma; 0.491 µM in the assay with HOP-92 NSCLC; 4.17 µM with HOP-62 NSCLC. In the assay with COLO 205 colon, this compound showed a TGI of 0.686 µM.

As for `C=C1C[C@](OC)([C@H](O)C(=O)N[C@@H](OC)[C@@H]2C[C@@H](O)C(C)(C)[C@@H](C[C@@H](COC)OC)O2)O[C@H](C)[C@@H]1C`, the GI50 in the assay with U251 CNS was 0.00175 µM; in the assay on NCI/ADR-RES ovarian it was 0.0141 µM and 0.0297 µM; with SK-OV-3 ovarian it was 0.00194 µM; with OVCAR-5 ovarian it was 0.00182 µM; in the assay on M14 melanoma it was 0.00178 µM; with HOP-92 NSCLC, 0.00286 µM. The 50% growth inhibitory concentration (GI50) in the assay with HOP-62 NSCLC is 0.00211 µM; in the assay with COLO 205 colon it was 0.00123 µM. In addition, the TGI was 0.00769 µM with U251 CNS; 0.142 µM and 0.314 µM in the assay on NCI/ADR-RES ovarian; 0.0078 µM in the assay on SK-OV-3 ovarian; 0.00689 µM with OVCAR-5 ovarian; 0.0041 µM with M14 melanoma; 0.00889 µM in the assay on HOP-92 NSCLC. Besides, the results for the concentration for total growth inhibition (TGI) with HOP-62 NSCLC and with COLO 205 colon were 0.0102 µM and 0.00342 µM, respectively.

For `OCCCN=NNc1ccc(-c2nc3ccccc3[nH]2)cc1`, the GI50 with U251 CNS was 2.07 µM; with SK-OV-3 ovarian, 24.2 µM; in the assay with OVCAR-5 ovarian, greater than 100 µM; in the assay on M14 melanoma it was 39.9 µM; in the assay with HOP-92 NSCLC, 14.8 µM; in the assay with HOP-62 NSCLC it was 50.5 µM. In addition, the GI50 in the assay on COLO 205 colon is 12.3 µM. In addition, the TGI was 4.76 µM in the assay on U251 CNS; 73 µM in the assay with SK-OV-3 ovarian; greater than 100 µM in the assay on OVCAR-5 ovarian; 69.4 µM in the assay with M14 melanoma; 66.5 µM with HOP-92 NSCLC; 71.3 µM in the assay with HOP-62 NSCLC. For the same compound, the TGI in the assay on COLO 205 colon is 52.9 µM.

`COc1ccccc1-n1c(-c2cc(O)ccc2C)cn2c3c(=O)[nH]c(=O)n(C)c3nc12`: the GI50 in the assay with U251 CNS is 22.2 µM; in the assay with NCI/ADR-RES ovarian, greater than 100 µM; in the assay on SK-OV-3 ovarian, 2.78 µM; in the assay with OVCAR-5 ovarian, 28.1 µM; in the assay with M14 melanoma, 90.8 µM; with HOP-62 NSCLC, 7.74 µM. The GI50 in the assay on COLO 205 colon is 18.2 µM. The TGI with U251 CNS, in the assay on NCI/ADR-RES ovarian, in the assay on SK-OV-3 ovarian, in the assay on OVCAR-5 ovarian, in the assay on M14 melanoma and in the assay on HOP-62 NSCLC was greater than 100 µM throughout. The compound also registered a concentration for total growth inhibition (TGI) with COLO 205 colon of 48 µM.

Regarding `CC(=O)N1CC(Nc2ccc(OC(F)(F)F)cc2)=CC1=O`, the GI50 in the assay with U251 CNS was 3.34 µM; in the assay on NCI/ADR-RES ovarian it was 0.781 µM; in the assay on SK-OV-3 ovarian, 3.53 µM; in the assay on OVCAR-5 ovarian it was greater than 100 µM; in the assay on M14 melanoma, 0.535 µM; in the assay with HOP-62 NSCLC, 3.51 µM. Further, the GI50 in the assay on COLO 205 colon is 1.21 µM. In addition, the concentration for total growth inhibition (TGI) with U251 CNS was greater than 100 µM; in the assay with NCI/ADR-RES ovarian it was 5.15 µM; in the assay with SK-OV-3 ovarian, greater than 100 µM; in the assay on OVCAR-5 ovarian, greater than 100 µM; in the assay with M14 melanoma, 6.71 µM; with HOP-62 NSCLC, greater than 100 µM. In the assay with COLO 205 colon, this compound registered a TGI of 4.69 µM.

`CC(C)C1OC(=O)C=C1Sc1ccccc1` (stereo unspecified): the concentration for total growth inhibition (TGI) in the assay on U251 CNS, with SK-OV-3 ovarian, in the assay with OVCAR-5 ovarian, in the assay on M14 melanoma, in the assay on HOP-62 NSCLC and in the assay on COLO 205 colon was greater than 100 µM in each case.

As to `COC(=O)c1ccc2c(c1)nc(-c1cc3ccccc3[nH]c1=O)n2-c1cc(C(C)(C)C)[nH]n1`, the GI50 with U251 CNS is 0.987 µM; with NCI/ADR-RES ovarian it was 2.97 µM; in the assay on SK-OV-3 ovarian, greater than 53.4 µM; with HOP-62 NSCLC it was 0.996 µM. Further, the TGI in the assay on U251 CNS, with NCI/ADR-RES ovarian, in the assay on SK-OV-3 ovarian and in the assay with HOP-62 NSCLC was greater than 100 µM in each case.

With `O=C(OCc1ccccc1)N1CCN(/[N+]([O-])=N/Oc2ccc([N+](=O)[O-])cc2[N+](=O)[O-])CC1`, the GI50 with U251 CNS is 4.85 µM; in the assay on NCI/ADR-RES ovarian, 5.25 µM; in the assay with OVCAR-5 ovarian it was 6.43 µM; in the assay on HOP-62 NSCLC, 12.3 µM; in the assay with COLO 205 colon, 4.35 µM. In addition, the total growth inhibition concentration (TGI) is 27.1 µM in the assay with U251 CNS; greater than 100 µM in the assay on NCI/ADR-RES ovarian; 67.6 µM in the assay with OVCAR-5 ovarian; 28 µM in the assay on HOP-62 NSCLC; 18.6 µM with COLO 205 colon.

With `COc1cc2c(cc1OCCOS(C)(=O)=O)N=C[C@@H]1CCCN1C2=O`, the GI50 is 17.1 µM with U251 CNS, 13.5 µM in the assay with NCI/ADR-RES ovarian and 18.7 µM in the assay with M14 melanoma. Further, the TGI in the assay on U251 CNS was 31.7 µM; in the assay on NCI/ADR-RES ovarian, 26.7 µM; in the assay on SK-OV-3 ovarian it was greater than 100 µM; in the assay on M14 melanoma, 34.6 µM; in the assay with HOP-92 NSCLC, 50.6 µM; in the assay with COLO 205 colon, greater than 100 µM.

In the case of `CN1CCCNc2c(c(=O)c2=O)NCCCN(C)CCCNc2c(c(=O)c2=O)NCCCN(C)CCCNc2c(c(=O)c2=O)NCCCN(C)CCCNc2c(c(=O)c2=O)NCCCN(C)CCCNc2c(c(=O)c2=O)NCCCN(C)CCCNc2c(c(=O)c2=O)NCCCN(C)CCCNc2c(c(=O)c2=O)NCCC1`, the GI50 with U251 CNS was 2.23 µM; in the assay on NCI/ADR-RES ovarian, 5.96 µM; in the assay with SK-OV-3 ovarian, 2.46 µM; in the assay on OVCAR-5 ovarian, 9.32 µM; with M14 melanoma it was 6.86 µM; with HOP-62 NSCLC, 4.41 µM. For the same compound, the GI50 in the assay with COLO 205 colon was 2 µM. Further, the TGI in the assay with U251 CNS is greater than 50 µM; in the assay on NCI/ADR-RES ovarian it was 26.7 µM; in the assay on SK-OV-3 ovarian it was 8.29 µM; in the assay on OVCAR-5 ovarian it was 20.6 µM; in the assay with M14 melanoma it was 18.6 µM; in the assay on HOP-62 NSCLC, 13.8 µM. This compound also yielded a TGI with COLO 205 colon of 6.13 µM.

The values above are taken from PubChem BioAssay (NCI).
